Data as given in PMC7129073 (Clinical Microbiology and Infection, 2015).
Values after ≈ are worked out from the molar mass of the structure shown. Like-named read-outs stand apart in the source and are kept apart here. Each block holds one molecule with its values, some of them ahead of it.

Tests used:
PRSP = experiment: Broth microdilution; type: cell-based, Streptococcus pneumoniae
H.influenzae = experiment: Broth microdilution; type: cell-based, Haemophilus influenzae
S. pneumoniae [1] = experiment: MIC of invasive strains, Saint George Hospital 2001–2004; type: cell-based, Streptococcus pneumoniae
ERSP = experiment: Broth microdilution; type: cell-based, Streptococcus pneumoniae
S. pneumoniae [2] = experiment: Broth microdilution; type: cell-based, Streptococcus pneumoniae
E. coli [3] = experiment: E-test susceptibility; type: cell-based, Escherichia coli
MSSA = experiment: Agar dilution MIC; type: cell-based, Staphylococcus aureus
S. pneumoniae (SPN) = experiment: NCCLS broth microdilution, fluoroquinolones 1999–2004; type: cell-based, Streptococcus pneumoniae; conditions: for MIC50 / MIC90: Streptococcus pneumoniae
K. pneumoniae [4] = experiment: E-test susceptibility; type: cell-based, Klebsiella pneumoniae
Enterobacter spp = experiment: E-test susceptibility; type: cell-based
Acinetobacter = experiment: Disk diffusion; type: cell-based; conditions: 37 isolates selected as resistant to beta-lactams
Escherichia coli = experiment: Vitek 2 susceptibility, urine isolates of children; type: cell-based
Klebsiella = experiment: SMART 2003 Europe, microdilution; type: cell-based, Klebsiella spp.; conditions: 341 isolates
K. oxytoca = experiment: E-test susceptibility; type: cell-based, Klebsiella oxytoca
E. coli [5] = experiment: SMART 2003 Europe, microdilution; type: cell-based, Escherichia coli; conditions: 1106 isolates
[6] = test system: inducible Enterobacteriaceae; experiment: SMART 2003, intraabdominal isolates; type: cell-based
Enterobacteriaceae = experiment: SMART 2003 Europe, microdilution; type: cell-based; conditions: 1948 isolates
K. pneumoniae [7] = experiment: MIC; type: cell-based, Klebsiella pneumoniae; conditions: Klebsiella pneumoniae
Shigella spp. = experiment: Disk diffusion, stool isolates Tehran; type: cell-based; conditions: 96 isolates
[8] = test system: Streptococcus agalactiae strains P0162 and P0425; experiment: Microdilution; type: cell-based
F. necrophorum = experiment: E-test, 13 clinical isolates; type: cell-based, Fusobacterium necrophorum
[9] = NCCLS breakpoints (Amox/Clav 2/1 mcg/mL)
[10] = ICU, SRGA breakpoints, tigecycline tentative S ≤2 μg/ml

MIC90 (PRSP): 8 mg/L (≈ 18.9 µM)
MIC90 (H.influenzae): 2 mg/L (≈ 4.71 µM)
MIC90 (ERSP): 8 mg/L (≈ 18.9 µM)
MIC90 (S. pneumoniae [2]): 8 mg/L (≈ 18.9 µM)
Compound: CO/N=C(\C(=O)N[C@@H]1C(=O)N2C(C(=O)O)=C(COC(N)=O)CS[C@H]12)c1ccco1 [Cefuroxime, cefuroxim]
%Sus (PRSP; [9]): 0.7%
%Sus (H.influenzae; NCCLS): 96.7%
% S (S. pneumoniae [1]): 95.2%
%R (S. pneumoniae [1]): 4.8%
%Sus (ERSP; [9]): 26.0%
%Sus (S. pneumoniae [2]; [9]): 65.2%
Susceptible isolates (E. coli [3]; [10]): 92%
Susceptible isolates (E. coli [3]; non ICU): 94%

MIC50 (MSSA; Staphylococcus aureus, MSSA): < 0.25 mg/L
MIC90 (MSSA; Staphylococcus aureus, MSSA): < 0.25 mg/L
MIC range (MSSA; n = 200): 125 to 16000 mg/L
Compound: Cc1onc(-c2ccccc2Cl)c1C(=O)N[C@@H]1C(=O)N2[C@@H]1SC(C)(C)[C@@H]2C(=O)O [Cloxacilin, cloxacillin]

MIC range (S. pneumoniae (SPN)): 0.25 to 2 mg/L
MIC50 (S. pneumoniae (SPN)): 0.5 mg/L (≈ 1.28 µM)
MIC90 (S. pneumoniae (SPN)): 1 mg/L (≈ 2.57 µM)
MIC50 (S. pneumoniae (SPN); 1999 (554)): ≤ 0.03 mg/L
MIC90 (S. pneumoniae (SPN); 1999 (554)): ≤ 0.03 mg/L
MIC50 (S. pneumoniae (SPN); 2000 (508)): ≤ 0.03 mg/L
MIC90 (S. pneumoniae (SPN); 2000 (508)): ≤ 0.03 mg/L
MIC50 (S. pneumoniae (SPN); 2001 (1.435)): 0.016 mg/L (≈ 0.0411 µM)
MIC90 (S. pneumoniae (SPN); 2001 (1.435)): 0.03 mg/L (≈ 0.077 µM)
MIC50 (S. pneumoniae (SPN); 2002 (1.502)): 0.016 mg/L (≈ 0.0411 µM)
MIC90 (S. pneumoniae (SPN); 2002 (1.502)): 0.03 mg/L (≈ 0.077 µM)
MIC50 (S. pneumoniae (SPN); 2003 (890)): 0.016 mg/L (≈ 0.0411 µM)
MIC90 (S. pneumoniae (SPN); 2003 (890)): 0.03 mg/L (≈ 0.077 µM)
MIC50 (S. pneumoniae (SPN); 2004 (1.003)): 0.016 mg/L (≈ 0.0411 µM)
MIC90 (S. pneumoniae (SPN); 2004 (1.003)): 0.03 mg/L (≈ 0.077 µM)
MIC50 (S. pneumoniae (SPN); All years (5.892)): 0.016 mg/L (≈ 0.0411 µM)
MIC90 (S. pneumoniae (SPN); All years (5.892)): 0.03 mg/L (≈ 0.077 µM)
MIC90 (S. pneumoniae (SPN); read-out: MIC90 during the six years, 1999–2004): 0.03 mg/L (≈ 0.077 µM)
Compound: CO/N=C1\CN(c2nc3c(cc2F)c(=O)c(C(=O)O)cn3C2CC2)CC1CN (stereo not drawn) [GEMI, gemifloxacin]
% I (S. pneumoniae (SPN); 1999 (554)): 0.4%
% S (S. pneumoniae (SPN); 1999 (554)): 99.6%
%R (S. pneumoniae (SPN); 1999 (554)): 0.0%
% I (S. pneumoniae (SPN); 2000 (508)): 0.2%
% S (S. pneumoniae (SPN); 2000 (508)): 99.6%
%R (S. pneumoniae (SPN); 2000 (508)): 0.2%
% I (S. pneumoniae (SPN); 2001 (1.435)): 0.3%
% S (S. pneumoniae (SPN); 2001 (1.435)): 99.4%
%R (S. pneumoniae (SPN); 2001 (1.435)): 0.3%
% I (S. pneumoniae (SPN); 2002 (1.502)): 0.3%
% S (S. pneumoniae (SPN); 2002 (1.502)): 99.5%
%R (S. pneumoniae (SPN); 2002 (1.502)): 0.2%
% I (S. pneumoniae (SPN); 2003 (890)): 0.0%
% S (S. pneumoniae (SPN); 2003 (890)): 100.0%
%R (S. pneumoniae (SPN); 2003 (890)): 0.0%
% I (S. pneumoniae (SPN); 2004 (1.003)): 0.7%
% S (S. pneumoniae (SPN); 2004 (1.003)): 99.2%
%R (S. pneumoniae (SPN); 2004 (1.003)): 0.1%
% I (S. pneumoniae (SPN); All years (5.892)): 0.3%
% S (S. pneumoniae (SPN); All years (5.892)): 99.5%
%R (S. pneumoniae (SPN); All years (5.892)): 0.2%

Compound: CN(C)c1cc(NC(=O)CNC(C)(C)C)c(O)c2c1C[C@H]1C[C@H]3[C@H](N(C)C)C(O)=C(C(N)=O)C(=O)[C@@]3(O)C(O)=C1C2=O [Tigecycline]
Susceptible isolates (K. pneumoniae [4]; ICU): 93%
Susceptible isolates (K. pneumoniae [4]; non ICU): 98%
Susceptible isolates (Enterobacter spp; ICU): 91%
Susceptible isolates (Enterobacter spp; non ICU): 96%

Compound: CC1(C)S[C@@H]2[C@H](NC(=O)C(C(=O)O)c3ccccc3)C(=O)N2[C@H]1C(=O)O (stereo partly drawn) [carbenicillin]
resistant isolates (Acinetobacter): 100.0%

Compound: CC(=O)OCC1=C(C(=O)O)N2C(=O)[C@@H](NC(=O)Cc3cccs3)[C@H]2SC1 [cefalothin]
susceptibility rate (Escherichia coli; paediatric surgical unit (PSU)): 19%
susceptibility rate (Escherichia coli; paediatric units (PU)): 66%

Compound: CO/N=C(\C(=O)N[C@@H]1C(=O)N2C(C(=O)[O-])=C(C[N+]3(C)CCCC3)CS[C@H]12)c1csc(N)n1 [cefepime]
Susceptible isolates (K. pneumoniae [4]; ICU): 98%
Susceptible isolates (K. pneumoniae [4]; non ICU): 100%
per cent susceptible (Klebsiella): 94%
Susceptible isolates (K. oxytoca; ICU): 100%
Susceptible isolates (K. oxytoca; non ICU): 96%
Susceptible isolates (Enterobacter spp; ICU): 84%
Susceptible isolates (Enterobacter spp; non ICU): 92%
per cent susceptible (E. coli [5]): 96%
% susceptible ([6]; A/P (N = 200)): 89%
% susceptible ([6]; EU (N = 354)): 97%
% susceptible ([6]; LA (N=113)): 88%
% susceptible ([6]; NA (N = 163)): 92%
resistant isolates (Acinetobacter): 21.6%
per cent susceptible (Enterobacteriaceae): 96%
MIC (K. pneumoniae [7]): > 64 mg/L
Susceptible isolates (E. coli [3]; [10]): 98%
Susceptible isolates (E. coli [3]; non ICU): 99%

Compound: CCN1CCN(C(=O)N[C@@H](C(=O)N[C@@H]2C(=O)N3C(C(=O)O)=C(CSc4nnnn4C)CS[C@H]23)c2ccc(O)cc2)C(=O)C1=O [cefoperazone]
resistant isolates (Acinetobacter): 100.0%

Compound: CO/N=C(\C(=O)N[C@@H]1C(=O)N2C(C(=O)O)=CCS[C@H]12)c1csc(N)n1 [ceftizoxime]
sensitive (Shigella spp.): 85%
resistant isolates (Acinetobacter): 86.5%

Compound: NC1CCN(c2c(F)cc3c(=O)c(C(=O)O)cn(C4CC4)c3c2Cl)C1 (stereo not drawn) [clinafloxacin]
MIC ([8]; strain P0162 (ParC Ser79Phe, GyrA Glu85Ala)): 0.25 mg/L (≈ 0.683 µM)
MIC ([8]; strain P0425 (ParC Ser79Phe, GyrA Glu85Lys)): 0.75 mg/L (≈ 2.05 µM)

Compound: C[C@H]1c2cccc(O)c2C(=O)C2=C(O)[C@]3(O)C(=O)C(C(N)=O)=C(O)[C@@H](N(C)C)[C@@H]3[C@@H](O)[C@@H]21 [doxycycline]
MIC range (F. necrophorum): 0.016 to 0.75 mg/L
MIC50 (F. necrophorum; Fusobacterium necrophorum): 0.064 mg/L (≈ 0.144 µM)
MIC90 (F. necrophorum; Fusobacterium necrophorum): 0.19 mg/L (≈ 0.428 µM)
resistant isolates (Acinetobacter): 54.1%
